Test results from paper PMC12064818, “A general assay platform to study protein pharmacology using ligand-dependent structural dynamics” (Nature Communications, 2025).

Target: T1, FLuc-C-HiBiT (Photinus pyralis, UniProt P08659)
T1 construct: firefly luciferase with C-terminal HiBiT tag, E. coli expressed
Test: biochemical
Settings: enzyme activity, 10 uM ATP; read-out: IC50 or SDR50 (mM) / FLuc E

T1 sequence (P08659 whole entry, looked up): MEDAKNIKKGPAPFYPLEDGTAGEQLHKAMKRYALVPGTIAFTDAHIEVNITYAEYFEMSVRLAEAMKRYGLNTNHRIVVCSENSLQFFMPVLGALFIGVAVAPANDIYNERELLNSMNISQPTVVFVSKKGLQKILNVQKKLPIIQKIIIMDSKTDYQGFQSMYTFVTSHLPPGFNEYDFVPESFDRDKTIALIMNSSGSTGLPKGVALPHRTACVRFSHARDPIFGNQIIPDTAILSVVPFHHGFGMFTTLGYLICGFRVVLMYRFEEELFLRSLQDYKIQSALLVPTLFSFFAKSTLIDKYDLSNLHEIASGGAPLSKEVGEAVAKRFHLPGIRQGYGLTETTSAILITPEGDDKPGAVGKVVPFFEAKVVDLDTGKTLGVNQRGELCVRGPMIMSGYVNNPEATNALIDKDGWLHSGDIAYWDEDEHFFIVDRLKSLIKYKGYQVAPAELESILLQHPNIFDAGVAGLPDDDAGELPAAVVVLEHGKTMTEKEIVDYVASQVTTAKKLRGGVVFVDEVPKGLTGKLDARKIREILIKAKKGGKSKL

| Structure (SMILES) | IC50 |
| --- | --- |
| CN1CCC(NC(=O)C(C)(C)Oc2nn(Cc3ncccn3)c3ccccc23)CC1 [NCGC00419638-01] | > 0.03 mM |
| C[C@H](C(=O)N1CCOCC1)C1CC[C@@]2(C)Cc3sc(-c4ccccc4)nc3[C@@H](C)[C@@H]2[C@H]1O (some centres unmarked) [NCGC00421021-01] | 0.00351 mM |
| C[C@H](C(=O)NCCN1CCOCC1)C1CC[C@@]2(C)Cc3sc(-c4ccccc4)nc3[C@@H](C)[C@@H]2[C@H]1O (some centres unmarked) [NCGC00421022-01] | 0.000989 mM |
| CSCC(=O)N[C@H]1CCN2C(=O)c3cc(/C=C/c4ccccc4)ccc3NC(=O)[C@H]12 [NCGC00421159-01] | 0.0143 mM |
| COc1ccc(/C=C/c2ccc3c(c2)C(=O)N2CC[C@H](NC(=O)COCC(=O)O)[C@H]2C(=O)N3)cc1 [NCGC00421238-01] | 0.00989 mM |
| C[C@H](C(=O)N(C)CCC#N)C1CC[C@@]2(C)Cc3sc(NC(=O)c4cccn4C)nc3[C@@H](C)[C@@H]2[C@H]1O (some centres unmarked) [NCGC00421252-01] | 0.007 mM |
| C=CCN(C)C(=O)[C@@H](C)C1CC[C@@]2(C)Cc3sc(NC(=O)CN(C)C)nc3[C@@H](C)[C@@H]2[C@H]1O (some centres unmarked) [NCGC00421253-01] | > 0.03 mM |
| Cc1nn(-c2ccc(C(C)C)cc2)c(C)c1[C@@H]1C=C[C@@H](NC(=O)Nc2ccccc2)C1 [NCGC00421405-01] | 0.018 mM |
| COc1ccc(NC(=O)N[C@@H]2C=C[C@@H](c3c(C)nn(-c4ccc(C(C)C)cc4)c3C)C2)cc1 [NCGC00421407-01] | > 0.03 mM |
| COc1ccc(-n2nc(C)c([C@@H]3C=C[C@@H](NC(=O)NCc4ccccc4)C3)c2C)cc1 [NCGC00421411-01] | 0.0064 mM |
| Cc1nn(-c2ccc(C(C)C)cc2)c(C)c1[C@@H]1C=C[C@@H](NC(=O)CC2(CC(=O)O)CCCC2)C1 [NCGC00421413-01] | > 0.03 mM |
| O=C(N[C@H]1CCN2C(=O)c3cc(/C=C/c4ccc(O)cc4)ccc3NC(=O)[C@H]12)c1cnccn1 [NCGC00421527-01] | > 0.03 mM |
| C[C@@H]1C(=O)O[C@H]2[C@H]1CC[C@@]1(C)Cc3sc(Nc4cccnc4)nc3[C@@H](C)[C@H]21 [NCGC00421621-01] | 0.000453 mM |
| C[C@@H]1C(=O)O[C@H]2[C@H]1CC[C@@]1(C)Cc3sc(NC(=O)c4c(F)cccc4F)nc3[C@@H](C)[C@H]21 [NCGC00421654-01] | 0.00989 mM |
| COc1cccc(Nc2nc(-c3ccccc3)no2)c1 [NCGC00422289-01] | 0.00624 mM |
| c1ccc(CNc2nc(-c3ccccc3)no2)cc1 [NCGC00422290-01] | 0.0176 mM |
| CCOC(=O)c1cccc(Nc2nc(-c3ccccc3)no2)c1 [NCGC00422292-01] | 0.00624 mM |
| Fc1ccccc1Nc1nc(-c2ccccc2)no1 [NCGC00422293-01] | 0.0007 mM |
| Fc1cccc(Nc2nc(-c3ccccc3)no2)c1 [NCGC00422294-01] | 0.007 mM |
| Fc1ccc(Nc2nc(-c3ccccc3)no2)cc1 [NCGC00422295-01] | 0.00624 mM |
| CCOc1ccc(Nc2nc(-c3ccccc3)no2)cc1 [NCGC00422297-01] | 0.00495 mM |

| Structure (SMILES) | IC50 |
| --- | --- |
| COc1ccc(Nc2nc(-c3ccccc3F)no2)cc1OC [NCGC00422302-01] | 0.00351 mM |
| CCc1ccc(Nc2nc(-c3ccccc3F)no2)cc1 [NCGC00422308-01] | 0.00624 mM |
| Fc1ccc(Nc2nc(-c3ccccc3F)no2)cc1 [NCGC00422310-01] | 0.00989 mM |
| Cc1cc(C)cc(Nc2nc(-c3ccccc3F)no2)c1 [NCGC00422314-01] | 0.00624 mM |
| COc1ccc(-c2noc(Nc3ccc(OC)c(OC)c3)n2)cc1 [NCGC00422322-01] | 0.0111 mM |
| COc1ccc(-c2noc(N3CCc4ccccc43)n2)cc1 [NCGC00422328-01] | 0.00313 mM |
| COc1ccc(-c2noc(Nc3ccc(C)c(C)c3)n2)cc1 [NCGC00422330-01] | 0.00989 mM |
| COc1ccc(-c2noc(Nc3ccc4c(c3)OCCO4)n2)cc1 [NCGC00422336-01] | 0.00157 mM |
| COc1ccc(-c2noc(Nc3ccccc3)n2)cc1 [NCGC00422340-01] | 0.00221 mM |
| CCc1ccccc1Nc1nc(-c2cccc(OC)c2OC)no1 [NCGC00422354-01] | 0.0111 mM |
| COc1cccc(-c2noc(Nc3ccc(OC)c(OC)c3)n2)c1 [NCGC00422366-01] | 0.00394 mM |
| COc1cccc(-c2noc(Nc3ccc4c(c3)OCO4)n2)c1 [NCGC00422370-01] | 0.00624 mM |
| COc1cccc(-c2noc(Nc3ccc4c(c3)OCCO4)n2)c1 [NCGC00422372-01] | 0.00157 mM |
| COc1ccc(Nc2nc(-c3cccc(OC)c3)no2)cc1 [NCGC00422374-01] | 0.00785 mM |
| Cn1ccnc1C(O)c1cc2n(n1)CCN(c1ncnc3[nH]cnc13)C2 (centres unmarked) [NCGC00422809-01] | > 0.03 mM |
| COc1cccc(-n2cc(CN(C)c3ncncn3)cn2)c1 [NCGC00424283-01] | > 0.03 mM |
| c1coc(-c2nc3nccc(-c4ccc5c(c4)OCCCO5)n3n2)c1 [NCGC00424571-01] | 0.00176 mM |
| Cc1ccc(NC(=O)N2CCC(CCNC(=O)C3CC3)CC2)cc1 [NCGC00424850-01] | 0.0111 mM |
| CCC(=O)NCCC1CCN(C(=O)Nc2ccc(C)cc2)CC1 [NCGC00424867-01] | 0.0124 mM |
| CC(=O)NCCC1CCN(C(=O)Nc2ccc(C)cc2)CC1 [NCGC00424871-01] | 0.0124 mM |
| O[C@H]1C[C@@H](c2cc(N3CCc4c(Cl)cccc4C3)ncn2)C1 [NCGC00424922-01] | 0.00989 mM |

| Structure (SMILES) | IC50 |
| --- | --- |
| CN(Cc1cnn(C)c1)C(=O)c1csc2nc(-c3ccc(C(F)(F)F)cc3)cn12 [NCGC00425000-01] | 0.00442 mM |
| O=C(NCCC1CCN(C(=O)Nc2cc(F)cc(F)c2)CC1)c1ccc(F)cc1 [NCGC00425011-01] | > 0.03 mM |
| COc1ccc(C(=O)NCCC2CCN(C(=O)Nc3cc(F)cc(F)c3)CC2)cc1 [NCGC00425013-01] | 0.00989 mM |
| O=C(NCc1ccoc1)c1ccc2nc(-c3ccc(F)cc3)cn2c1 [NCGC00425034-01] | 0.0111 mM |
| Cc1ccc(NC(=O)N2CCC(CCNC(=O)c3ccc(F)cc3)CC2)cc1F [NCGC00425047-01] | 0.0111 mM |
| Cc1ccc(NC(=O)N2CCC(CCNC(=O)C3CC3)CC2)cc1F [NCGC00425057-01] | 0.0111 mM |
| Cc1ccc(NC(=O)N2CCC(CCNC(=O)C3CCC3)CC2)cc1F [NCGC00425059-01] | 0.0124 mM |
| CCC(=O)NCCC1CCN(C(=O)Nc2ccc(C)c(F)c2)CC1 [NCGC00425067-01] | 0.0111 mM |
| OCc1cn(CC2CCN(c3ncnc4[nH]cnc34)CC2)nn1 [NCGC00425096-01] | > 0.03 mM |
| COc1cccc(-c2noc(-c3ccc(N4CCCC(CO)C4)nc3)n2)c1OC (centres unmarked) [NCGC00425266-01] | 0.00279 mM |
| CN(Cc1nccs1)c1ccc(-c2nc(-c3ccccc3F)no2)cn1 [NCGC00425298-01] | 0.00989 mM |
| CC(Cc1cnccn1)Nc1ccc(-c2nc(-c3cccc(Cl)c3)no2)cn1 (centres unmarked) [NCGC00425352-01] | 0.0111 mM |
| CCN1C(=O)CCc2cc(NC(=O)c3ccc(C(C)C)cc3)ccc21 [NCGC00425391-01] | 0.00989 mM |
| CCN1C(=O)CCc2cc(NC(=O)c3ccc(OC(F)(F)F)cc3)ccc21 [NCGC00425397-01] | 0.0111 mM |
| Cc1cccc(-c2cccc(NC(=O)C3CCCN(C(=O)CC(F)(F)F)C3)c2)c1 (centres unmarked) [NCGC00425452-01] | > 0.03 mM |
| O=C1CCc2cc(NC(=O)c3n[nH]c4ccccc34)ccc2N1 [NCGC00425473-01] | 0.00313 mM |
| CN(Cc1cccnc1)c1ccc(-c2nc(COc3ccccc3)no2)cn1 [NCGC00425502-01] | 0.0124 mM |
| CCc1ccc(C(=O)Nc2ccc3c(N4CCOCC4)ncnc3c2)cc1 [NCGC00425539-01] | 0.00785 mM |
| CN(C)c1cccc(C(=O)Nc2ccc3c(N4CCOCC4)ncnc3c2)c1 [NCGC00425557-01] | 0.00989 mM |
| Cc1c(-c2ccccc2F)[nH]c2ccc(CNC(=O)CC3CCC(=O)N3)cc12 (centres unmarked) [NCGC00425710-01] | 0.00989 mM |
| CC(=O)N1CCCN(c2ccc(-c3nc(-c4ccccc4F)no3)cn2)CC1 [NCGC00426241-01] | 0.0157 mM |

| Structure (SMILES) | IC50 |
| --- | --- |
| CN(CCc1ccccn1)c1ccc(-c2nc(COc3ccccc3)no2)cn1 [NCGC00426301-01] | 0.0111 mM |
| COc1ccc(OC)c(CN2CCOc3ccc(C(=O)NCc4ccc(C)cc4)cc3C2)c1 [NCGC00426332-01] | > 0.03 mM |
| CN(C)C(=O)c1ccc(-c2cccc(-c3ccn(CC4CC4)n3)c2)o1 [NCGC00426335-01] | 0.00785 mM |
| Cc1ccc(CNC(=O)c2ccc3c(c2)CN(Cc2cnn(C)c2C)CCO3)cc1 [NCGC00426362-01] | > 0.03 mM |
| Cc1cc(CNC(=O)C2(C(N)=O)CC2)c2[nH]c(-c3ccccc3)c(C)c2c1 [NCGC00426839-01] | 0.0111 mM |
| COCC1CCN(c2ccc(-c3nc(-c4ccccc4C)no3)cn2)C1 (centres unmarked) [NCGC00427117-01] | 0.0176 mM |
| CC(CCn1cccn1)NC(=O)c1csc2nc(-c3ccc(C(F)(F)F)cc3)cn12 (centres unmarked) [NCGC00427469-01] | 0.00989 mM |
| CC(Cn1cccn1)Nc1ccc(-c2nc(-c3ccccc3F)no2)cn1 (centres unmarked) [NCGC00427483-01] | 0.00989 mM |
| O=C(Nc1cccc(-c2ccc(N3CCCC3)nn2)c1)c1c(F)cccc1F [NCGC00427548-01] | 0.00881 mM |
| CN1CCN(c2ccc(-c3cccc(NC(=O)C4CCCCC4)c3)nn2)CC1 [NCGC00427550-01] | 0.00881 mM |
| Cc1ccc(C(=O)Nc2cccc(-c3ccc(N4CCN(C)CC4)nn3)c2)cc1C [NCGC00427552-01] | 0.00394 mM |
| O=C(NCc1ccco1)Nc1cccc(-c2ccc(N3CCCC3)nn2)c1 [NCGC00427562-01] | 0.00989 mM |
| COc1ccc(NC(=O)Nc2cccc(-c3ccc(N4CCOCC4)nn3)c2)cc1 [NCGC00427572-01] | 0.00176 mM |
| CCOc1ccccc1NC(=O)Nc1cccc(-c2ccc(N3CCOCC3)nn2)c1 [NCGC00427574-01] | 0.00394 mM |
| O=C(Nc1ccc(F)cc1)Nc1cccc(-c2ccc(N3CCOCC3)nn2)c1 [NCGC00427578-01] | 0.00197 mM |
| COc1ccccc1NC(=O)Nc1cccc(-c2ccc(N3CCOCC3)nn2)c1 [NCGC00427580-01] | 0.00313 mM |
| O=C(Nc1cccc(-c2ccc(N3CCOCC3)nn2)c1)Nc1cc(F)ccc1F [NCGC00427590-01] | 0.00248 mM |
| COc1cc(NC(=O)Nc2cccc(-c3ccc(N4CCOCC4)nn3)c2)cc(OC)c1 [NCGC00427592-01] | 0.00176 mM |
| O=C(Nc1cccc(-c2ccc(N3CCOCC3)nn2)c1)Nc1cccc(C(F)(F)F)c1 [NCGC00427594-01] | 0.00495 mM |
| Cc1ccc(CNC(=O)Nc2cccc(-c3ccc(N4CCOCC4)nn3)c2)cc1 [NCGC00427596-01] | 0.00279 mM |
